Measured values taken from patent publication US20230295119A1, “SUBSTITUTED PYRIDINES FOR THE TREATMENT OF INFLAMMATORY DISEASES” (GOSSAMER BIO SERVICES, INC., priority 2020, published 2023).

Columns and labels:
TYK2 JH2 domain = TYK2 JH2 domain (Homo sapiens (Human), UniProt P29597); test: TYK2 JH2 NanoBRET assay; type: binding; conditions: Table 20, read-out: TYK2 IC50
Summary of the method: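 Tracer displacement measured by BRET ratio (acceptor over donor) in live HEK293T cells transfected with a NanoLuc-tagged TYK2 JH2 construct; cells co-exposed to test compound and 0.5 µM final K10 tracer for 2 h before substrate/extracellular inhibitor addition.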

human JAK1 = human JAK1 (Homo sapiens (Human), UniProt P23458); test: JAK1 TR-FRET kinase assay; type: biochemical; conditions: TR-FRET, JAK1 2.5 nM
human JAK2 = human JAK2 (Homo sapiens (Human), UniProt O60674); test: JAK2 TR-FRET kinase assay; type: biochemical; conditions: JAK2 0.025 nM
human JAK3 = human JAK3 (Homo sapiens (Human), UniProt P52333); test: JAK3 TR-FRET kinase assay; type: biochemical; conditions: JAK3 0.0125 nM
Chain of human JAK3 (P52333 whole entry): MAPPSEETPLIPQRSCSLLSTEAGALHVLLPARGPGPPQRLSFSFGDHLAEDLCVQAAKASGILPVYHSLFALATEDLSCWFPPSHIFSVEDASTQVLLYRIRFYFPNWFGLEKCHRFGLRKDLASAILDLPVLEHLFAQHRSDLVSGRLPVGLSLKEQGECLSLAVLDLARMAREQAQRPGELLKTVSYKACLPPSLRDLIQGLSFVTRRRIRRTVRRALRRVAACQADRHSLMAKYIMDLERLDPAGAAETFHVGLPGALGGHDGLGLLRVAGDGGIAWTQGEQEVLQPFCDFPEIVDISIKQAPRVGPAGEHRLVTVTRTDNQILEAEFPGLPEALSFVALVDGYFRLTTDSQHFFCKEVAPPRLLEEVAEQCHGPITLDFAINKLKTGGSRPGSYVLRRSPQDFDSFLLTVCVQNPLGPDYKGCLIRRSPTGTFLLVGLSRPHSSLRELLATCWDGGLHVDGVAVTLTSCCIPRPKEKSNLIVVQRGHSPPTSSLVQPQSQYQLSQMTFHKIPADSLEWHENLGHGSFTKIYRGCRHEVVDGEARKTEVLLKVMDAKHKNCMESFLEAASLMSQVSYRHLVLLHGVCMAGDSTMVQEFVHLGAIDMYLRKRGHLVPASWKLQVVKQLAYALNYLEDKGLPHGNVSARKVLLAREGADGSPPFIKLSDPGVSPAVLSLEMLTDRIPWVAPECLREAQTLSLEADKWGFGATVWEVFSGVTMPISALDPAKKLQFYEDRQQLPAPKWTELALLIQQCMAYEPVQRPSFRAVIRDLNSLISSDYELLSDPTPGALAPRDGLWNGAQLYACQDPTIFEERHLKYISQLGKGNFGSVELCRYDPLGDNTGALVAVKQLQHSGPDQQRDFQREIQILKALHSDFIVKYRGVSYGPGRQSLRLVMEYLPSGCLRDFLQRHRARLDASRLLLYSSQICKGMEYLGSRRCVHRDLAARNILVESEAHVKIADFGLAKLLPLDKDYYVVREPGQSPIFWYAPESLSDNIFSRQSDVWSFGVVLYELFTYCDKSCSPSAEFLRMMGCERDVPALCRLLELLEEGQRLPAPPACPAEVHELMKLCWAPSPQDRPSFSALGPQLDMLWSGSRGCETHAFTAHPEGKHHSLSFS

Chain of human JAK2 (O60674 whole entry): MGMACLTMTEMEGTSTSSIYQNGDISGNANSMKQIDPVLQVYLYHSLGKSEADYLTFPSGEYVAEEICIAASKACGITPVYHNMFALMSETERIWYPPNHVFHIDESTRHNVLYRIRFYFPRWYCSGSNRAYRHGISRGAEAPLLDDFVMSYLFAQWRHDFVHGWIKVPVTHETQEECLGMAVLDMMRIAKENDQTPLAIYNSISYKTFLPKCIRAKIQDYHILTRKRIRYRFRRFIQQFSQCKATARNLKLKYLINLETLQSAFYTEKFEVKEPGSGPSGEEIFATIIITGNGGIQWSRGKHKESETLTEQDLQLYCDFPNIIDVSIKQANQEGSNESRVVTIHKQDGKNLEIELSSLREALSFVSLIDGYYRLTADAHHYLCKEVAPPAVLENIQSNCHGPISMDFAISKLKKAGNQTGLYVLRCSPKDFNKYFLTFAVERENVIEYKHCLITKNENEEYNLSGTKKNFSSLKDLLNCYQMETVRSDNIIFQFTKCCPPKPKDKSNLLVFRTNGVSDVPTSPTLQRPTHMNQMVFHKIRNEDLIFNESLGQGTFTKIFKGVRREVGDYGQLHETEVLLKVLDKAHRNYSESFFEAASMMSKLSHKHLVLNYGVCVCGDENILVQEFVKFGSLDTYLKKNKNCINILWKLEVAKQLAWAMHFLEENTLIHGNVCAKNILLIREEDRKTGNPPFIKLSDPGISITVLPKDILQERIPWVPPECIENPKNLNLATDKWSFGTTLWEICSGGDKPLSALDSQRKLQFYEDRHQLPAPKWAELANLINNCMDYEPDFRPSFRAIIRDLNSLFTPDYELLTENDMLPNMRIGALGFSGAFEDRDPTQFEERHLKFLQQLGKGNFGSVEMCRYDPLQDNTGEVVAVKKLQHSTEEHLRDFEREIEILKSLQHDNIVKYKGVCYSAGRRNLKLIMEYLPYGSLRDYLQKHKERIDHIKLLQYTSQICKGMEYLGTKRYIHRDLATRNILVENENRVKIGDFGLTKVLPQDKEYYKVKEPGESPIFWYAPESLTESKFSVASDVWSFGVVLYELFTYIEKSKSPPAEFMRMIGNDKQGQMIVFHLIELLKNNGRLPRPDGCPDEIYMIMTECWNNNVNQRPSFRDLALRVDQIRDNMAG
Chain of TYK2 JH2 domain (P29597 589-875): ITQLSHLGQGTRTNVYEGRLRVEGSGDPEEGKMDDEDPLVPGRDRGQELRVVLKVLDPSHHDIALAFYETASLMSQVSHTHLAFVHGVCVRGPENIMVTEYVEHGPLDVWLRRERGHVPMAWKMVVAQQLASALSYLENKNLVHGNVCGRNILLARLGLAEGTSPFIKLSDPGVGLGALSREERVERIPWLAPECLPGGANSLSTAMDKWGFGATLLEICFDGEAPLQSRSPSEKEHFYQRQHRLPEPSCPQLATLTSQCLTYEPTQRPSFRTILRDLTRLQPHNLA
Chain of human JAK1 (P23458 whole entry): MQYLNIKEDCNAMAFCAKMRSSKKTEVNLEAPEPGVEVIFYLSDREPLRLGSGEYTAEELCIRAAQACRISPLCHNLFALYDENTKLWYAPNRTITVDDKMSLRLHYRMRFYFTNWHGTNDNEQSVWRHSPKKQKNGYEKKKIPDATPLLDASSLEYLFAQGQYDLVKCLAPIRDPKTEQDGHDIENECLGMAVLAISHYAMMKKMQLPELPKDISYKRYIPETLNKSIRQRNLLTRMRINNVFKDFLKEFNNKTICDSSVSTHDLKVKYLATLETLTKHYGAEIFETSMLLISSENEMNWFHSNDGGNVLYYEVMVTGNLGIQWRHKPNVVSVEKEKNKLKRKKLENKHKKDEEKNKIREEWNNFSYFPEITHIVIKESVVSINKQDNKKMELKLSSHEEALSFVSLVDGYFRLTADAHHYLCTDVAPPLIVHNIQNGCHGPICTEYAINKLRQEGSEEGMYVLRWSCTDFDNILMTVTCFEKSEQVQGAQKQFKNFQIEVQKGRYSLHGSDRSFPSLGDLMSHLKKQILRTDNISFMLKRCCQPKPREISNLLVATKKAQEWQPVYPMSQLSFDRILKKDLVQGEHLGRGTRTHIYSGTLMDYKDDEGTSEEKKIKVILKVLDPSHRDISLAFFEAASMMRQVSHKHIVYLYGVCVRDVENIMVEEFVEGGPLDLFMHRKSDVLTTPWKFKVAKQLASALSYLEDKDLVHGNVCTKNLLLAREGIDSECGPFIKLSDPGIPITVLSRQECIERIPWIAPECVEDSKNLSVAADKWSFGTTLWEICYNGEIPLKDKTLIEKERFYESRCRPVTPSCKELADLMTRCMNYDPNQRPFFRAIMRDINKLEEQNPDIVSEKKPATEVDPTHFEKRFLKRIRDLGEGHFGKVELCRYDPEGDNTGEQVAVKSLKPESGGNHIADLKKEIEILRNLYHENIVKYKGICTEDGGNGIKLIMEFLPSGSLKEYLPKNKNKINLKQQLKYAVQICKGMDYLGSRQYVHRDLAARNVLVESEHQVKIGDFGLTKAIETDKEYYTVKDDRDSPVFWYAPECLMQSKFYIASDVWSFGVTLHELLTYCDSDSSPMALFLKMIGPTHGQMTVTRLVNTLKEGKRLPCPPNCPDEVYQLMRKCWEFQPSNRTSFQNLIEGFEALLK

| SMILES | IC50 (TYK2 JH2 domain) [nM] | IC50 (human JAK1) [nM] | IC50 (human JAK2) [nM] | IC50 (human JAK3) [nM] |
| --- | --- | --- | --- | --- |
| CCO[C@H]1C[C@@H](n2nc(Nc3cc(Nc4cccc(-c5ncn(C)n5)c4OC)c(C(=O)CC)cn3)cc2C)C1 [Compound 21FF] | < 5 | ≥ 500 | ≥ 500 | ≥ 500 |
| CCC(=O)c1cnc(Nc2cnc(O[C@@H]3C[C@H](C)N(C)C3)cn2)cc1Nc1cccc(-c2ncn(C)n2)c1OC [Compound 18MMM] | 5 to 50 | ≥ 500 | ≥ 500 | ≥ 500 |
| CCC(=O)c1cnc(Nc2csc(CN3CCCC3)n2)cc1Nc1cccc(-c2ncn(C)n2)c1OC [Compound 21F] | 5 to 50 | ≥ 500 | ≥ 500 | ≥ 500 |
| CCC(=O)c1cnc(Nc2ccn(CC3CCCO3)n2)cc1Nc1cccc(-c2ncn(C)n2)c1OC (stereo not drawn) [Compound 21S] | 5 to 50 | ≥ 500 | ≥ 500 | ≥ 500 |
| CCC(=O)c1cnc(Nc2ccn(-c3ccccc3)c(=O)n2)cc1Nc1cccc(-c2ncn(C)n2)c1OC [Compound 20A, 4-((4-((2-methoxy-3-(1-methyl-1H-1,2,4-triazol-3-yl)phenyl)amino)-5-propionylpyridin-2-yl)amino)-1-phenylpyrimidin-2(1H)-one] | < 5 | ≥ 500 | ≥ 500 | ≥ 500 |
| COc1c(Nc2cc(Nc3ccc(CS(C)(=O)=O)cn3)ncc2C(=O)C2CC2)cccc1-c1ncn(C)n1 [Compound 130] | < 5 | ≥ 500 | ≥ 500 | ≥ 500 |
| CCC(=O)c1cnc(Nc2ccn(C[C@H]3C[C@@H](O)C3)n2)cc1Nc1cccc(-c2ncn(C)n2)c1OC [Compound 21W] | 5 to 50 | ≥ 500 | ≥ 500 | ≥ 500 |
| CCC(=O)c1cnc(Nc2cnc(OCCNC)cn2)cc1Nc1cccc(-c2ncn(C)n2)c1OC [Compound 18NN] | < 5 | ≥ 500 | ≥ 500 | ≥ 500 |
| CCC(=O)c1cnc(Nc2ccc(C(=O)O)cn2)cc1Nc1cccc(-c2ncn(C)n2)c1OC [Compound 8B] | 50 to 500 | ≥ 500 | ≥ 500 | ≥ 500 |
| CCC(=O)c1cnc(Nc2cnc(O[C@@H]3CCN(C)C[C@@H]3F)cn2)cc1Nc1cccc(-c2ncn(C)n2)c1OC [Compound 18SSS] | 5 to 50 | ≥ 500 | ≥ 500 | ≥ 500 |
| CCC(=O)c1cnc(Nc2ccc(C3(N(C)C)CC3)cn2)cc1Nc1cccc(-c2ncn(C)n2)c1OC [Compound 9Q] | < 5 | ≥ 500 | ≥ 500 | ≥ 500 |
| CCC(=O)c1cnc(Nc2cn([C@H]3C[C@@H](O)C3)cn2)cc1Nc1cccc(-c2ncn(C)n2)c1OC [Compound 21P] | 5 to 50 | ≥ 500 | ≥ 500 | ≥ 500 |
| CCC(=O)c1cnc(Nc2ccc(-c3cn(C)cn3)cn2)cc1Nc1cccc(-c2ncn(C)n2)c1OC [Compound 15B] | < 5 | ≥ 500 | ≥ 500 | 50 to 500 |
| CCC(=O)c1cnc(Nc2ccc(O[C@H]3CCN(C)C3)nn2)cc1Nc1cccc(-c2ncn(C)n2)c1OC [Compound 18GG] | 5 to 50 | ≥ 500 | ≥ 500 | ≥ 500 |
| COc1c(Nc2cc(Nc3ccc(CN(C)C)cn3)ncc2C(=O)C2CC2)cccc1-c1ncn(C)n1 [Compound 9F] | 5 to 50 | ≥ 500 | ≥ 500 | ≥ 500 |
| CCC(=O)c1cnc(NC(=O)CCCN2CCCC2)cc1Nc1cccc(-c2ncn(C)n2)c1OC [Compound 23E] | 50 to 500 | ≥ 500 | ≥ 500 | ≥ 500 |
| CCC(=O)c1cnc(Nc2cc(CCN3CCCC3)ncn2)cc1Nc1cccc(-c2ncn(C)n2)c1OC [Compound 11G] | < 5 | ≥ 500 | ≥ 500 | 50 to 500 |
| CCC(=O)c1cnc(Nc2ccc(C(C)NCC(F)(F)F)cn2)cc1Nc1cccc(-c2ncn(C)n2)c1OC (stereo not drawn) [Compound 9Z] | 5 to 50 | ≥ 500 | 50 to 500 | ≥ 500 |
| CCC(=O)c1cnc(Nc2cc(CN3CCOCC3)ccn2)cc1Nc1cccc(-c2ncn(C)n2)c1OC [Compound 9KKKK] | < 5 | ≥ 500 | ≥ 500 | 50 to 500 |
| CCC(=O)c1cnc(Nc2ccn([C@H]3C[C@@H](O)C3)n2)cc1Nc1cccc(-c2ncn(C)n2)c1OC [Compound 21J] | 5 to 50 | ≥ 500 | ≥ 500 | ≥ 500 |
| CCC(=O)c1cnc(Nc2ccc(CN(C)CC)cn2)cc1Nc1cccc(-c2ncn(C)n2)c1OC [Compound 9U] | < 5 | ≥ 500 | ≥ 500 | ≥ 500 |
| CCC(=O)c1cnc(Nc2ccn([C@H]3C[C@@H](OC(F)F)C3)n2)cc1Nc1cccc(-c2ncn(C)n2)c1OC [Compound 21BB] | < 5 | ≥ 500 | ≥ 500 | ≥ 500 |
| CCC(=O)c1cnc(Nc2ccc(S(=O)(=O)NC)cn2)cc1Nc1cccc(-c2ncn(C)n2)c1OC [Compound 13C] | 5 to 50 | ≥ 500 | ≥ 500 | ≥ 500 |

Now from value to compound:

| IC50 (TYK2 JH2 domain) [nM] | IC50 (human JAK1) [nM] | IC50 (human JAK2) [nM] | IC50 (human JAK3) [nM] | SMILES |
| --- | --- | --- | --- | --- |
| 5 to 50 | ≥ 500 | ≥ 500 | ≥ 500 | CCC(=O)c1cnc(Nc2ccc(-n3ccccc3=O)cn2)cc1Nc1nccc(-c2ncn(C)n2)c1OC [Compound 15U] |
| < 5 | ≥ 500 | ≥ 500 | ≥ 500 | CCC(=O)c1cnc(Nc2ccc(CCN3CCCC3)cn2)cc1Nc1cccc(-c2ncn(C)n2)c1OC [Compound 11C] |
| < 5 | ≥ 500 | ≥ 500 | ≥ 500 | CCC(=O)c1cnc(Nc2ccc(C(=O)N(C)C)cn2)cc1Nc1cccc(-c2ncn(C)n2)c1OC [Compound 8D] |
| < 5 | ≥ 500 | 50 to 500 | 50 to 500 | CCC(=O)c1cnc(Nc2ccc(OC3CCN(C)CC3)cn2)cc1Nc1cccc(-c2ncn(C)n2)c1OC [Compound 18Y] |
| < 5 | ≥ 500 | ≥ 500 | ≥ 500 | CCC(=O)c1cnc(Nc2ccc(OCCCN3CCCC3)nn2)cc1Nc1cccc(-c2ncn(C)n2)c1OC [Compound 18DD] |
| 50 to 500 | ≥ 500 | ≥ 500 | ≥ 500 | CCC(=O)c1cnc(Nc2ccn(CC3CCO3)n2)cc1Nc1cccc(-c2ncn(C)n2)c1OC (stereo not drawn) [Compound 21V] |
| 5 to 50 | ≥ 500 | ≥ 500 | ≥ 500 | CCC(=O)c1cnc(Nc2ccc(CN(C)CC(F)F)cn2)cc1Nc1cccc(-c2ncn(C)n2)c1OC [Compound 9Y] |
| < 5 | ≥ 500 | ≥ 500 | ≥ 500 | CCC(=O)c1cnc(Nc2cccc(C(N)=O)n2)cc1Nc1cccc(-c2ncn(C)n2)c1OC [Compound 8J] |
| < 5 | ≥ 500 | ≥ 500 | ≥ 500 | CCC(=O)c1cnc(Nc2ccc(CN3CCOCC3)cn2)cc1Nc1cccc(-c2ncn(C)n2)c1OC [Compound 9SS] |
| 5 to 50 | ≥ 500 | ≥ 500 | ≥ 500 | CCC(=O)c1cnc(Nc2cnc(OCCN3CC[C@H](F)C3)cn2)cc1Nc1cccc(-c2ncn(C)n2)c1OC [Compound 18XX] |
